Reference: patent publication US10647675B2 (priority 2015, dated 2020)
Converted amounts (≈) assume the structure as drawn.

Legend:
[1] = system: Trichophyton rubrum KD-1130; experiment: Antifungal activity evaluation test: minimum inhibitory concentration (MIC), broth dilution by reference to CLSI M38-A2; assay type: cell-based; details: KD1130, read-out: MIC (T. rubrum)
Summary of the method: (§1)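 Broth microdilution after CLSI M38-A2: 2-fold DMSO dilution series in MOPS-buffered RPMI 1640 pH 7.0, inoculum 2×10^3 cells/mL final. Incubated 35° C for 4 days; MIC (μg/mL) is lowest concentration giving visually ≥80% growth inhibition versus growth control.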

[2] = system: Trichophyton mentagrophytes SM-110; experiment: as above; assay type: cell-based; details: SM110, read-out: MIC (T. menta.)
Summary of the method: as §1

Compound	MIC [1] [µg/mL]	MIC [2] [µg/mL]
CCc1ccc(Oc2ncccc2-c2cnccc2CC)cc1 [I-291, 4′-ethyl-2-(4-ethylphenoxy)-3,3′-bipyridine]	≤ 0.1	≤ 0.1
COc1ccncc1-c1cccnc1Oc1ccc(CC(F)(F)F)cc1 [I-249, 4′-methoxy-2-[4-(2,2,2-trifluoroethyl)phenoxy]-3,3′-bipyridine]	0.2 to 0.78 (≈ 0.555 to 2.16 µM)	0.2 to 0.78 (≈ 0.555 to 2.16 µM)
Cc1ccncc1-c1cccnc1Oc1ccc(C(F)(F)F)nc1 [I-25]	0.2 to 0.78 (≈ 0.604 to 2.35 µM)	0.2 to 0.78 (≈ 0.604 to 2.35 µM)
COc1ccccc1-c1cccnc1Oc1ccc(Cl)cc1 [I-199, 2-(4-chlorophenoxy)-3-(2-methoxyphenyl)pyridine]	≤ 0.1	≤ 0.1
Cc1ccncc1-c1cccnc1Oc1ccc(C(C)(F)F)nc1 [I-91, 2-{[6-(1,1-difluoroethyl)pyridin-3-yl]oxy}-4′-methyl-3,3′-bipyridine]	0.2 to 0.78 (≈ 0.611 to 2.38 µM)	0.2 to 0.78 (≈ 0.611 to 2.38 µM)
CC(F)(F)c1ccc(Oc2ncccc2-c2cncc3nccnc23)cn1 [I-111, 8-(2-{[6-(1,1-difluoroethyl)pyridin-3-yl]oxy}pyridin-3-yl)pyrido[3,4-b]pyrazine]	0.2 to 0.78 (≈ 0.547 to 2.13 µM)	0.2 to 0.78 (≈ 0.547 to 2.13 µM)
Clc1ccc(Oc2nccnc2-c2cccc3ccccc23)cc1 [I-314, 2-(4-chlorophenoxy)-3-(naphthalen-1-yl)pyrazine]	≤ 0.1	0.2 to 0.78 (≈ 0.601 to 2.34 µM)
COc1c(F)cncc1-c1cccnc1Oc1ccc(C(F)F)cc1 [I-356, 2-[4-(difluoromethyl)phenoxy]-5′-fluoro-4′-methoxy-3,3′-bipyridine]	≤ 0.1	≤ 0.1
COc1ccncc1-c1cccnc1Oc1ccc(OC(F)(F)F)cc1 [I-237, 4′-methoxy-2-[4-(trifluoromethoxy)phenoxy]-3,3′-bipyridine]	≤ 0.1	≤ 0.1
Nc1ccccc1-c1cccnc1Oc1ccc(C(F)(F)F)nc1 [I-61, 2-(2-{[6-(trifluoromethyl)pyridin-3-yl]oxy}pyridin-3-yl)-aniline]	1.56 to 6.25 (≈ 4.71 to 18.9 µM)	1.56 to 6.25 (≈ 4.71 to 18.9 µM)
CCCc1ccc(Oc2ncccc2-c2cnccc2OC)cc1 [I-254, 4′-methoxy-2-(4-propylphenoxy)-3,3′-bipyridine]	≤ 0.1	≤ 0.1
CCc1ccc(Oc2ncccc2-c2cnccc2OC)cc1F [I-392, 2-(4-ethyl-3-fluorophenoxy)-4′-methoxy-3,3′-bipyridine]	≤ 0.1	≤ 0.1
COc1cc(-c2cccnc2Oc2ccc(C(C)(F)F)nc2)c(F)cc1F [I-85]	≤ 0.1	≤ 0.1
COCC(F)(F)c1ccc(Oc2ncccc2-c2cc(Cl)cnc2OC)cn1 [I-451]	≤ 0.1	≤ 0.1
O=Cc1ccccc1-c1cccnc1Oc1ccc(C(F)(F)F)nc1 [I-63, 2-(2-{[6-(trifluoromethyl)pyridin-3-yl]oxy}pyridin-3-yl)-benzaldehyde]	0.2 to 0.78 (≈ 0.581 to 2.27 µM)	0.2 to 0.78 (≈ 0.581 to 2.27 µM)
COc1ccc(-c2cccnc2Oc2ccc(C(C)(F)F)nc2)c(OC)n1 [I-94, 2′-{[6-(1,1-difluoroethyl)pyridin-3-yl]oxy}-2,6-dimethoxy-3,3′-bipyridine]	≤ 0.1	≤ 0.1
CCC(=O)OCCc1ccc(Oc2ncccc2-c2cnccc2OC)cc1 [I-278, 4-{[4′-methoxy-3,3′-bipyridin)-2-yl]oxy}phenethyl propionate]	0.2 to 0.78 (≈ 0.529 to 2.06 µM)	0.2 to 0.78 (≈ 0.529 to 2.06 µM)
COc1ccc(Cl)cc1-c1cccnc1Oc1ccc(C(F)(F)F)nc1 [I-23, 3-(5-chloro-2-methoxyphenyl)-2-{[6-(trifluoromethyl)pyridin-3-yl]oxy}pyridine]	≤ 0.1	≤ 0.1
C#Cc1ccc(Oc2ncccc2-c2cnccc2OC)cc1 [I-260, 2-(4-ethynylphenoxy)-4′-methoxy-3,3′-bipyridine]	≤ 0.1	0.2 to 0.78 (≈ 0.662 to 2.58 µM)
FC(F)(F)Oc1ccccc1-c1cccnc1Oc1ccc(C(F)(F)F)nc1 [I-21, 3-(2-trifluoromethoxyphenyl)-2-{[6-(trifluoromethyl)pyridin-3-yl]oxy}pyridine]	0.2 to 0.78 (≈ 0.5 to 1.95 µM)	0.2 to 0.78 (≈ 0.5 to 1.95 µM)
CCOC(=O)CN(C)c1ccc(Oc2ncccc2-c2ccccc2OC)cn1 [I-344, ethyl 2-[(5-{[3-(2-methoxyphenyl)pyridin-2-yl]oxy}pyridin-2-yl)(methyl)amino]acetate]	≤ 0.1	≤ 0.1
COc1ccncc1-c1cccnc1Oc1ccc(C(F)F)cc1 [I-294, 2-[4-(difluoromethyl)phenoxy]-4′-methoxy-3,3′-bipyridine]	0.2 to 0.78 (≈ 0.609 to 2.38 µM)	0.2 to 0.78 (≈ 0.609 to 2.38 µM)
COc1ccccc1-c1cccnc1Nc1ccc(C(F)(F)F)nc1 [I-313]	≤ 0.1	≤ 0.1
COc1cccc(-c2cccnc2Oc2ccc(C(C)(F)F)nc2)n1 [I-95, 2′-{[6-(1,1-difluoroethyl)pyridin-3-yl]oxy}-6-methoxy-2,3′-bipyridine]	0.2 to 0.78 (≈ 0.583 to 2.27 µM)	0.2 to 0.78 (≈ 0.583 to 2.27 µM)
COc1ccccc1-c1cccnc1Oc1ccc(C(C)(F)F)nc1 [I-81, 2-{[6-(1,1-difluoroethyl)pyridin-3-yl]oxy}-3-(2-methoxyphenyl)pyridine]	≤ 0.1	≤ 0.1
FC(F)(F)c1ccc(Oc2ncccc2-c2cccc3c(Br)cnn23)cn1 [I-52, 3-bromo-7-(2-{[6-(trifluoromethyl)pyridin-3-yl]oxy}pyridin-3-yl)-pyrazolo[1,5-a]pyridine]	≤ 0.1	0.2 to 0.78 (≈ 0.46 to 1.79 µM)
COc1ccccc1-c1cccnc1Oc1cnc(N(C)Cc2ccccc2)nc1 [I-339, N-benzyl-5-{[3-(2-methoxyphenyl)pyridin-2-yl]oxy}-N-methylpyrimidin-2-amine]	≤ 0.1	≤ 0.1
Cc1ccncc1-c1cccnc1Oc1ccc(-c2ccncc2)cc1 [I-430]	≤ 0.1	≤ 0.1

The remaining lines, values ahead:

MIC [1] [µg/mL]	MIC [2] [µg/mL]	Compound
0.2 to 0.78 (≈ 0.554 to 2.16 µM)	0.2 to 0.78 (≈ 0.554 to 2.16 µM)	COc1c(F)cncc1-c1cccnc1Oc1ccc(C(C)(F)F)nc1 [I-98, 2-{[6-(1,1-difluoroethyl)pyridin-3-yl]oxy}-5′-fluoro-4′-methoxy-3,3′-bipyridine]
0.2 to 0.78 (≈ 0.547 to 2.13 µM)	0.2 to 0.78 (≈ 0.547 to 2.13 µM)	COc1cc(F)ccc1-c1cccnc1Oc1cnc(N(C)CC#N)nc1 [I-189]
0.2 to 0.78 (≈ 0.653 to 2.55 µM)	0.2 to 0.78 (≈ 0.653 to 2.55 µM)	CCc1ccc(Oc2ncccc2-c2ccccc2OC)cn1 [I-124, 2-[(6-ethylpyridin-3-yl)oxy]-3-(2-methoxyphenyl)pyridine]
0.2 to 0.78 (≈ 0.505 to 1.97 µM)	≤ 0.1	FC1(F)Oc2cccc(-c3cccnc3Oc3ccc(C(F)(F)F)nc3)c2O1 [I-39, 3-(2,2-difluorobenzo[1,3]dioxol-4-yl)-2-{[6-(trifluoromethyl)pyridin-3-yl]oxy}pyridine]
≤ 0.1	≤ 0.1	FC(F)(F)c1ccc(Nc2ncncc2-c2cccc3ccnn23)cc1 [I-362, 5-(pyrazolo[1,5-a]pyridin-7-yl)-N-[4-(trifluoromethyl)phenyl]pyrimidin-4-amine]
≤ 0.1	≤ 0.1	CCOC(=O)c1ccc(Oc2ncccc2-c2cnccc2OCC)cc1 [I-415, ethyl 4-{[4′-ethoxy-(3,3′-bipyridin)-2-yl]oxy}benzoate]
1.56 to 6.25 (≈ 4.25 to 17 µM)	1.56 to 6.25 (≈ 4.25 to 17 µM)	FC(F)(F)c1ccc(Oc2ncccc2-c2cccc3cnccc23)cn1 [I-33, 5-(2-{[6-(trifluoromethyl)pyridin-3-yl]oxy}pyridin-3-yl)isoquinoline]
≤ 0.1	≤ 0.1	CCc1ccc(Oc2ncccc2-c2cnccc2OC)cc1C [I-263, 2-(4-ethyl-3-methylphenoxy)-4′-methoxy-3,3′-bipyridine]
≤ 0.1	≤ 0.1	Fc1ccc(-c2cccnc2Oc2ccc(C(F)(F)F)nc2)c(F)c1 [I-8, 3-(2,4-difluorophenyl)-2-{[6-(trifluoromethyl)pyridin-3-yl]oxy}pyridine]
≤ 0.1	≤ 0.1	CC(F)(F)c1ccc(Oc2ncccc2-c2cccc3nccnc23)cc1 [I-308, 5-{2-[4-(1,1-difluoroethyl)-phenoxy]-3-yl}quinoxaline]
0.2 to 0.78 (≈ 0.519 to 2.02 µM)	≤ 0.1	COc1ccccc1-c1cccnc1Oc1ccc(C(F)(F)CN(C)C)nc1 [I-147, 2,2-difluoro-2-(5-{[3-(2-methoxyphenyl)pyridin-2-yl]oxy}-2-yl)-N,N-dimethylethanamine]
1.56 to 6.25 (≈ 4.5 to 18 µM)	1.56 to 6.25 (≈ 4.5 to 18 µM)	COc1ccccc1-c1cccnc1Oc1cnc2c(c1)CCCC2=O [I-141, 3-{[3-(2-methoxyphenyl)pyridin-2-yl]oxy}-6,7-dihydroquinolin-8(5H)-one]
≤ 0.1	≤ 0.1	COc1cc(-c2cncnc2Oc2ccc(C(C)(F)F)nc2)c(F)cc1F [I-334, 4-{[6-(1,1-difluoroethyl)pyridin-3-yl]oxy}-5-(2,4-difluoro-5-methoxyphenyl)pyrimidine]
≤ 0.1	≤ 0.1	COc1ccncc1-c1cccnc1Oc1ccc(C(F)F)c(C)c1 [I-295, 2-[4-(difluoromethyl)-3-methylphenoxy]-4′-methoxy-3,3′-bipyridine]
≤ 0.1	≤ 0.1	COc1ccccc1-c1cccnc1Oc1ccc(CNc2ccccc2)nc1 [I-371, N-[(5-{[3-(2-methoxyphenyl)pyridin-2-yl]oxy}pyridin-2-yl)methyl]aniline]
≤ 0.1	≤ 0.1	COc1cc(F)ccc1-c1cccnc1Oc1cnc(N(C)C)nc1 [I-185, 5-{[3-(4-fluoro-2-methoxyphenyl)pyridin-2-yl]oxy}-N,N-dimethylpyrimidin-2-amine]
1.56 to 6.25 (≈ 4.35 to 17.4 µM)	0.2 to 0.78 (≈ 0.558 to 2.18 µM)	COc1ncccc1-c1cccnc1Oc1ccc(C(F)(F)CO)cc1 [I-434]
≤ 0.1	≤ 0.1	CCc1ccc(Oc2ncccc2-c2cncc(Br)c2OC)cc1 [I-285, 5′-bromo-2-(4-ethylphenoxy)-4′-methoxy-3,3′-bipyridine]
≤ 0.1	≤ 0.1	COc1ncccc1-c1cccnc1Oc1ccc(C(F)F)cc1 [I-443]
0.2 to 0.78 (≈ 0.469 to 1.83 µM)	≤ 0.1	COc1cc(F)ccc1-c1cccnc1Oc1ccc(C(F)(F)Cn2ccnc2)nc1 [I-158, 2-{(6-[1,1-difluoro-2-(1H-imidazol-1-yl)ethyl]pyridin-3-yl)oxy}-3-(4-fluoro-2-methoxyphenyl)pyridine]
